# Results as given in US6500858B2, “Taxoid anti-tumor agents and pharmaceutical compositions thereof” (The Research Foundation of the state University of New York, priority 1994, dated 2002).
# Experiment: cytotoxicity of C-3′ modified docetaxel analog (cell line not clearly stated)
# Assay type: cell-based
# Conditions: compared with isobutenyl group of RAH-1
smiles,measurement,value
CC(=O)OC12COC1CC(O)C1(C)C(=O)C(O)C3=C(C)C(OC(=O)C(O)C(C=Cc4ccccc4)NC(=O)OC(C)(C)C)CC(O)(C(OC(=O)c4ccccc4)C21)C3(C)C (stereo not shown) [3′-dephenyl-3′-(2-phenylethenyl)docetaxel],decrease in cytotoxicity,> 20 times
